# Source: US20200360331A1, “COMPOSITIONS COMPRISING 15-HEPE AND/OR 15-HETrE AND METHODS OF TREATING OR PREVENTING CARDIOMETABOLIC DISEASE, METABOLIC SYNDROME, AND/OR RELATED DISEASES” (Afimmune Limited, priority 2019, published 2020)
# Assay: UUO study: body weight, kidney weight, general condition
# Format: in vivo
# Settings: UUO mice
# Description: UUO Surgery: On day 0 of the study, UUO surgery was performed on mice under pentobarbital sodium anesthesia. The mouse's hair was first shaved and then abdomen cut open to exteriorize the mouse's left ureter. The ureter was ligated 4-0 nylon sutures at two points. The mouse's peritoneum and skin were then closed with sutures, and the mouse transferred to a clean cage until recovered from the anesthesia. Sham operated mice had their left ureter exposed but not ligated. […]
# Animals: Seven-week-old female C57BL/6 mice (i.e., animals) were obtained from Japan SLC, Inc. (Japan) and were housed and fed with a normal diet (CE-2; CLEA Japan, Japan) under controlled conditions. The animals were maintained in a specific-pathogen free (SPF) facility under controlled conditions of temperature (e.g., 23±2° C.), humidity (e.g., 45±10%), lighting (e.g., 12-hour artificial light and dark cycles; light from 8:00 to 20:00) and air exchange. A high pressure was maintained in the experimental room to prevent contamination of the facility. The animals were housed in TPX cages (CLEA Japan) with a maximum of 4 mice per cage. Sterilized Paper-Clean (Japan SLC) was used for bedding and replaced once a week. Sterilized solid normal diet was provided ad libitum, being placed in a metal lid on the top of the cage. Pure water was also provided ad libitum from a water bottle equipped with a rubber stopper and a sipper tube. Water bottles were replaced once a week, cleaned, and sterilized in an autoclave and reused. Mice were identified by ear punch and each cage was labeled with a specific identification code.
# Animal Monitoring and Sacrifice: The viability, clinical signs and behavior for the mice were monitored daily. Individual body weight was measured daily before treatment during the treatment period. […] The animals were sacrificed by exsanguination through direct cardiac puncture under isoflurane anesthesia (Pfizer Inc.) at Day 14.
# [1] = 50 mg/kg PO QD Day 0-13, Day 14
# [2] = 500 mg/kg PO QD Day 0-13, Day 14
smiles,measurement,setting,value
"CC/C=C\CC(O)/C=C/C=C\C/C=C\C/C=C\CCCC(=O)O (stereo not shown) [DS102, 15-hydroxy-eicosa-5Z,8Z,11Z,13E,17Z-pentaenoic acid]",Left Kidney Weight,[1],469 ± 60 mg
same,Right Kidney Weight,[1],133 ± 10 mg
same,Left Kidney Weight,[2],487 ± 108 mg
same,Right Kidney Weight,[2],136 ± 6 mg
